Data: patent US20200345725A1, “Methods and Compositions for Treating Cancer” (Omeros Corporation, priority 2019, published 2020)
“And” between values parts separate entries of the source, which are not always exact repeats. Identical values can stand only once. “Also recorded” adds a separate entry of the source.

How the values were obtained:
Assay type in all cases: cell-based
GPR174 [1] = biological target: T1, GPR174 (Homo sapiens, UniProt Q9BXC1); experiment: CRE-Luc reporter Gs signaling assay with GPR174; parameters: host or cells: HEK293 or CHO cell lines (ATCC); details: for Fold decrease in Gs signaling activity / EC50 / Human GPR174 CRE Activity: nature of the compound (IA, antagonist, NM): pCRE-Luc reporter; for EC50: multiple values = separate experiments; for Gs pathway in the presence of GPR174 (CRE-Luc reporter): increasing concentrations of compound
Target sequence in this assay (Q9BXC1 whole entry): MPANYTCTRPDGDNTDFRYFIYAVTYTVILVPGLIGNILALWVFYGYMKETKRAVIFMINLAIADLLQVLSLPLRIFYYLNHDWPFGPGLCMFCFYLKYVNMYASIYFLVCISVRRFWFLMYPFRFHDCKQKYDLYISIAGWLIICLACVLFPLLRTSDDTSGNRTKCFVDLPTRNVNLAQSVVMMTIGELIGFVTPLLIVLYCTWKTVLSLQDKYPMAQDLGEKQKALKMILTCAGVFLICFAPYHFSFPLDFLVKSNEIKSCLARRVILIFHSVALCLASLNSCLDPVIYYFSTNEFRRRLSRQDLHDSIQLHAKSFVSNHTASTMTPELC

GPR174 [2] = biological target: T1, GPR174; experiment: Cellular redistribution assay (CRA) for GPR174; details: multiple values = separate experiments
Description: One method for identifying compounds capable of modulating a receptor is using a cellular redistribution assay (“CRA”). Exemplary CRA methods are found in U.S. Pat. No. 7,309,576 issued to O'Dowd et al. and in O'Dowd et al., J. Biomol. Screen. 12:175-85,2007. […] Incorporation of the NLS alters the cellular localization of the GPCR, such that the majority of the NLS-modified receptor is present in the cell interior. An NLS-modified GPCR, when interacting with a functionally active compound, is mostly localized on the cell surface. Thus, it becomes possible to identify receptor modulators without knowledge of the endogenous ligand or a surrogate ligand.
The inventors have identified a number of compounds that inhibit GPR174 using a CRA assay similar to that described in U.S. Pat. No. 7,309,576 and in O'Dowd et al., J. Biomol. Screen. 12:175-85, 2007. These compounds are described in detail below.
The inventors used a CRA similar to that described in U.S. Pat. No. 7,309,576 and O'Dowd et al., J. Biomol. Screen. 12:175-85, 2007 to identify compounds that are capable of interacting with GPR174 using a library of approximately 370,000 chemical entities. Briefly described, the CRA assay described in U.S. Pat. No. 7,309,576 involves artificially inserting a NLS into the dopamine D1 receptor (DRD1), which allows the receptor to traffic from the cell membrane to the cell interior, and that the binding of antagonists to the receptor retained the receptor at the cell surface, while removal of the ligand allowed the receptor to continue to internalize from the cell surface. Both antagonists and agonists that selectively bound the receptor retained the receptor on the plasma membrane. GPR174 constructs were generated for use in a CRA-based compound screening assay. From this screen, the inventors initially identified compounds of formula I-VI, as described herein and included in Table 1.
Target sequence in this assay (Q9BXC1 1-292 limits assumed): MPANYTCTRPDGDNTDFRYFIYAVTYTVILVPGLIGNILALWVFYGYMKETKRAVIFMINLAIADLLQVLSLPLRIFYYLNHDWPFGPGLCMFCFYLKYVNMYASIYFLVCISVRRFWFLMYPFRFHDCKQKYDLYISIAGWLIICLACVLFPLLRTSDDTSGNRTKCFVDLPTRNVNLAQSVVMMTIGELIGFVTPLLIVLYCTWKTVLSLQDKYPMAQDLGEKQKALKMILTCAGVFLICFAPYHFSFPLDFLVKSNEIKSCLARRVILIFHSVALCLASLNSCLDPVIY

ADBR2 = biological target: T2, ADBR2 (Homo sapiens, UniProt P07550); experiment: CRE-Luc reporter assay with control receptor ADBR2
T2 construct: host or cells: HEK293 or CHO cell lines (ATCC)
T2 sequence (P07550 whole entry): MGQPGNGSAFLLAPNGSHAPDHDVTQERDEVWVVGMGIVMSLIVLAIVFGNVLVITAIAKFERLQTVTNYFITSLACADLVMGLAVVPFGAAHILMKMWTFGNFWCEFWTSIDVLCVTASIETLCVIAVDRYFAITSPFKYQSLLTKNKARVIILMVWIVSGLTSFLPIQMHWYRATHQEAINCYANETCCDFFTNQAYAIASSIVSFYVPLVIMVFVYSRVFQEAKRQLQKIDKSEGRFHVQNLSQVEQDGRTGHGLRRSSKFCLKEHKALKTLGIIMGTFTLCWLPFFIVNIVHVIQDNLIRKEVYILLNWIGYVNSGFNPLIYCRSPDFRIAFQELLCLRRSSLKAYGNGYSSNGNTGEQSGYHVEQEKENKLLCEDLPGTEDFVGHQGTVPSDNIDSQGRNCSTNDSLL
Experimental: The DNA/lipofectamine 2000 mix (3000 μL) was incubated at room temperature for 30 minutes and then added into a 10 cm culture dish (Corning, NY) containing 70-90% confluent cultured cells, (HEK293 or CHO cell lines (ATCC, VA)), in 15 mL of media. […] The cells were further incubated at 37° C. for various times. The media were removed and the cells lysed.
Compounds were tested in the reporter system with increasing concentrations of GPR174-interacting compounds.
The DNA/lipofectamine 2000 mix (3000 μL) was incubated at room temperature for 30 minutes and then added into a 10 cm culture dish (Corning, NY) containing 70-90% confluent cultured cells, typically HEK293 or CHO cell lines (ATCC, VA), in 15 mL of media. […] Media (26 mL) were added to the detached cells and 120 μL of transfected cells were transferred to each well on a 96-well plate. Increasing concentration of each compound in DMSO (1.2 μl) was added to the cells after plating into the 96-well plate. The cells were further incubated at 37° C. for various times. The media were removed, and the cells lysed.
ADBR2 is a GPCR, like GPR174, that activates the Gs signaling pathway.

Row | SMILES | Fold decrease in Gs signaling activity (GPR174 [1]) | EC50 (GPR174 [1]) | EC50 (GPR174 [2]) | Gs pathway in the presence of GPR174 (CRE-Luc reporter) (GPR174 [1]) | Gs pathway in the presence of ADBR2 (CRE-Luc reporter) (ADBR2) | Human GPR174 CRE Activity: nature of the compound (IA, antagonist, NM) (GPR174 [1])
1 | CCCC(=O)N1CCN(c2cc(N3CCCCC3)c(F)cc2[N+](=O)[O-])CC1 [compound 5] | 2.4 fold | 0.9 µM | > 1.2 µM |  |  | 
2 | CCOC(=O)N1CCN(c2cc(N3CCCCC3)c(F)cc2[N+](=O)[O-])CC1 [compound 7] | 2.4 fold | 0.3 µM and 0.5 µM | > 0.7 µM | inhibited | did not inhibit | 
3 | CCC(=O)N1CCN(c2cc(N3CCCCC3)c(F)cc2[N+](=O)[O-])CC1 [compound 9] | 2.1 fold | 0.7 µM and 0.5 µM | > 2 µM |  |  | 
4 | CC(=O)N1CCN(c2cc(N3CCC(C)CC3)c(F)cc2[N+](=O)[O-])CC1 [compound 13] | 2.2 fold | 0.8 µM and 1.2 µM | > 2 µM |  |  | 
5 | Cc1ccc(-c2nnc(Nc3ccccc3)c3ccccc23)cc1S(N)(=O)=O [compound 19] |  |  |  | did not modulate | did not modulate | Antagonist or allosteric modulator
6 | Cc1cc(Cc2ccc(NC(=O)c3cccs3)c(C)c2)ccc1NC(=O)c1cccs1 [compound 21] |  |  |  | did not modulate | did not modulate | GPR174 antagonist or allosteric modulator
7 | COc1ccc(C2C3=C(CCCC3=O)NC3=C2C(=O)c2ccccc23)cc1 (stereo not shown) [compound 22] | 10.2 fold | 1 µM and 1.5 µM |  | inhibited | did not inhibit | 
8 | CCOc1ccc(C2C3=C(CCCC3=O)NC3=C2C(=O)c2ccccc23)cc1 (stereo not shown) [compound 23] | 14.1 fold | 0.4 µM and 0.9 µM and 1.2 µM and 1 µM |  | inhibited | did not inhibit | 
9 | CCCCOc1ccc(C2C3=C(CCCC3=O)NC3=C2C(=O)c2ccccc23)cc1 (stereo not shown) [compound 31] | 8.9 fold | 1.2 µM |  | inhibited | did not inhibit | 
10 | O=C1CCCC2=C1C(c1ccc(OCCO)cc1)C1=C(N2)c2ccccc2C1=O (stereo not shown) [compound 33] | 9.2 fold | 4.4 µM |  | inhibited | did not inhibit | 
11 | O=C1CCCC2=C1C(c1ccc3c(c1)OCCO3)C1=C(N2)c2ccccc2C1=O (stereo not shown) [compound 36] | 8.3 fold | 2.6 µM |  | inhibited | did not inhibit | 
12 | O=C1CCCC2=C1C(c1ccncc1)C1=C(N2)c2ccccc2C1=O (stereo not shown) [compound 42] | 4.3 fold | 6.6 µM |  | inhibited | did not inhibit | 
13 | CC(C)Oc1ccc(C2C3=C(CCCC3=O)NC3=C2C(=O)c2ccccc23)cc1 (stereo not shown) [compound 49] | 14.3 fold | 0.6 µM |  |  |  | 
14 | C=CCOc1ccc(C2C3=C(CCCC3=O)NC3=C2C(=O)c2ccccc23)cc1 (stereo not shown) [compound 50] | 10.1 fold | 1.2 µM |  |  |  | 
15 | CCOc1cccc(C2C3=C(CCCC3=O)NC3=C2C(=O)c2ccccc23)c1 (stereo not shown) [compound 51] | 1.7 fold | 1.6 µM |  |  |  | 
16 | CCCCCCOc1ccc(C2C3=C(CCCC3=O)NC3=C2C(=O)c2ccccc23)cc1 (stereo not shown) [compound 52] | 3.1 fold | 0.5 µM |  |  |  | 
17 | O=[N+]([O-])c1cc(F)c(N2CCCCCC2)cc1N1CCN(S(=O)(=O)c2ccccc2)CC1 [compound 53] | 3.4 fold | 1.8 µM |  |  |  | 
18 | CCc1ccc(C2C3=C(CCCC3=O)NC3=C2C(=O)c2ccccc23)cn1 (stereo not shown) [compound 54] | 7 fold | 2 µM |  |  |  | 
19 | CCOc1ccc(C2C3=C(CCCC3=O)NC3=C2C(=O)c2ccccc23)cn1 (stereo not shown) [compound 55] | 7 fold | 0.6 µM |  |  |  | 
20 | C=C(C)COc1ccc(NC(=O)Nc2ccccc2)cc1 [compound 56] | 3 fold | 0.5 µM |  |  |  | inverse agonist
21 | O=C(N/N=C/c1cc(Cl)ccc1O)c1ccncc1 [compound 57] |  |  |  |  |  | GPR174 antagonists or allosteric modulators; also recorded: Antagonist or allosteric modulator
22 | Cc1cc(C(=O)N/N=C/c2cc(Br)ccc2O)c(C)o1 [compound 58] |  |  |  |  |  | GPR174 antagonists or allosteric modulators; also recorded: Antagonist or allosteric modulator
23 | S=C(NCc1ccco1)Nc1ccc(I)cc1 [compound 59] |  |  |  |  |  | NM (“NM” refers to “non-modulator.”)
